From patent US20180009764A1, “METHOD FOR TREATING MACROPHAGE MIGRATION INHIBITORY FACTOR (MIF)-IMPLICATED DISEASES AND CONDITIONS WITH IODO PYRIMIDINE DERIVATIVES” (UNIVERSITY OF LOUISVILLE RESEARCH FOUNDATION, INC., priority 2009, published 2018)
In brackets after ≈: the same amount, converted by molar mass.

Legend:
MIF [1] = biological target: T1, MIF (Mus musculus, UniProt P34884); assay: MIF liver lysates enzymatic activity ex vivo (L-dopachrome tautomerase); settings: mice; IP 1 mg in corn oil every day for 3 days; livers 6 hours after last injection; FIG. 1
T1 construct: from tissue; host or cells: mouse liver (A7); liver, lung and brain of C57BL6 mice (A20)
Experimental: This experiment, using an ex-vivo approach and the tautomeric reaction of L-dopachrom, was designed to ascertain the level of inhibition of MIF following administration of the compounds of this invention via oral, IV, IP or any other route of administration. Mice were used in the example illustrated below, but other animals could be used as well. Groups of 3 mice were administered IP 1 mg of 4-IPP and ACT-002 resuspended in 100 μl of corn oil every day for 3 days. Mice were sacrificed 6 hours after the last injection and livers were harvested. ˜1 gram pieces of liver were lysed in PBS containing 1 mM NaVO4, 2 mM NaF and a protease inhibitor cocktail (Roche Biochemical, Indianapolis, Ind.) using dounce-homogenization on ice. 500 μg of liver lysates were added to a final volume of 700 μl PBS in plastic cuvettes. 4 mM L-3, 4-dihydroxyphenylalanine methyl ester and 8 mM sodium periodate (Sigma-Aldrich) were combined in a 3:2 ratio to form L-dopachrome methyl ester. 300 μL of L-dopachrome methyl ester was then immediately added to the cuvettes; the OD475 nm was measured 2 min and 4 min after addition of the L-dopachrome.

MIF [2] = biological target: T1, MIF; assay: Oral bioavailability: ex vivo MIF enzymatic activity in liver, brain and lung after IP and PO dosing; design: species or system C57BL6 mice
Experimental: The compounds were administered orally (PO) and intraperitoneally (IP) to healthy animals. The inhibition of the MIF liver enzymatic activity determined ex vivo following IP and PO dosing is similar, indicating high oral bioavailability. Furthermore, brain and lung tissues were collected and processed to determine MIF enzymatic activity in these organs. […] Inhibition of MIF enzyme was determined […] following dosing of MIF-002 at 40 mg/kg once a day for three days, both IP and PO (normal C57BL6 mice, n=3). Tissues were collected at sacrifice and processed. Liver, lung, and brain tissues were collected, processed, and used for the determination of MIF enzyme activity. Values are expressed as a percentage calculated using DMSO as control (no inhibition).
Two additional compounds were tested, MIF-035 and MIF-041.

[3] = Solubility in varying solvents; type: physicochemical; settings: 21 °C, 20-22° C.
[4] = Caco-2 cell permeability and transport; type: in vitro ADME; settings: human, Caco-2, pH 7.4
Outline: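 Caco-2 and MDR1-MDCK monolayers were run in triplicate, apical-to-basolateral and basolateral-to-apical, in modified Hanks buffer pH 7.4 with 1% BSA on the receiver side. Monolayer integrity was checked with atenolol and propranolol. Both sides were sampled at 2 h and quantified by LC/MS-MS.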

p53 = p53 up regulation, p53 luciferase assay; type: cell-based; settings: 10 μM; FIG. 5
Experimental: The up regulation of p53 was determined using a commercially available p53 luciferase assay kit. 1×10^5 cells/ml were plated in a 24 well plate and allowed to adhere overnight. MIF antagonists were added to the cells at the indicated concentrations for 16 hours and transiently co-transfected with 0.125 μg/well of p53-responsive luciferase promoter plasmid (Promega, Madison, Wis.) together with 0.0125 μg/well Renilla pRL-null plasmid (Promega) using Lipofectamine (Invitrogen) transfection reagent. After 24 hrs, Firefly and Renilla luciferase activities were measured by the Dual Luciferase Reporter Assay System (Promega, Madison, Wis.) on a TD-20/20 luminometer (Turner Designs).

[5] = system: DU145 human prostate xenografts; assay: In vivo efficacy in DU145 xenograft tumor model; design: species or system athymic nude mice; settings: daily IP 40 mg/kg for 4 weeks; FIG. 8
Experimental: Athymic nude mice at 7-8 weeks of age were used for the study. Mice were housed in microisolator housing, with food and water provided as libitum, and quarantined for 4 days prior to the initiation of the study. DU145 cells were maintained in McCoy's 5A medium supplemented with 10% fetal bovine serum and 2 mM glutamine. Cells at 80% confluence were harvested using 0.25% trypsin/EDTA solution, washed once with PBS and resuspended in a mixture of serum-free medium/Matrigel (1:1 by volume) at a density of 3×10^6 cells/100 μl. 4 groups of 10 mice each were used in the experiment. DU145 cells suspended in 100 μl of a mixture of medium/Matrigel (1:1) were subcutaneously implanted in the right flank region. Animals were monitored for tumor growth daily after cell implantation. When tumor volumes reached 80-100 mm^3, mice were randomized into 4 groups of 10 mice each using only mice having tumor volumes closest to the mean value. Tumor volumes were measured using the formula V=L×W×H×π/6, where L and W represent the longer and shorter diameters of the tumor and H represents the height of the tumor. Treatment began the day after randomization. Act-MIF-001, ACT-MIF-002, and ACT-MIF-003 were administered daily by IP injection at a dose of 40 mg/kg for 4 weeks. Throughout the entire study, tumor volumes were measured twice weekly and body weights once weekly.

[6] = system: DU145 human prostate xenografts; assay: Microvessel density in xenograft tumors (immunohistochemistry); type: in vivo, athymic nude mice; settings: end of the DU145 xenograft experiment; FIG. 9
Experimental: At the end of the experiment described in EXAMPLE 69 above, tumors in each group were removed and sliced. Blood vessel density of the tumor tissues was measured by immunohistochemistry. […] These in vivo results confirmed that the compounds described in this application inhibit angiogenesis.

| SMILES | MIF liver enzyme inhibition (MIF [1]) | Inhibition of MIF enzymatic activity in brain and lungs (MIF [2]; 40 mg/kg once a day for three days, IP and PO, FIG. 12) | Oral bioavailability (MIF [2]; judged from ex vivo MIF inhibition after IP and PO dosing) | Crossing of the blood brain barrier (MIF [2]; judged from ex vivo MIF inhibition in brain) | solubility ([3]; aqueous with cosolvent or surfactant or cyclodextrin, Cremophor) | solubility ([3]; aqueous with cosolvent or surfactant or cyclodextrin, Ethanol/Tween 80) | solubility ([3]; oil or lipid, Corn oil) | solubility ([3]; organic solvent or mixture, DMSO) | solubility ([3]; organic solvent or mixture, Ethanol) | solubility ([3]; organic solvent or mixture, PEG-300) | solubility ([3]; organic solvent or mixture, Propane-diol) | efflux ratio at 2 h [4] | p53 regulation (p53) | Tumor growth inhibition [5] | Microvessel density of tumor tissues [6] |
| --- | --- | --- | --- | --- | --- | --- | --- | --- | --- | --- | --- | --- | --- | --- | --- |
| COc1ccc(-c2cc(I)ncn2)c(F)c1 [ACT-MIF-002, 4-Iodo-6-(2-fluoro-4-methoxyphenyl)pyrimidine] | significant in vivo inhibition of MIF | inhibits MIF enzymatic activity in both the brain and the lungs | orally bioavailable | crosses the brain blood barrier | – | – | – | – | – | – | – | – | – | – | – |
| Fc1ccccc1-c1cc(I)ncn1 [ACT-MIF-003, 4-Iodo-6-(2-fluorophenyl)pyrimidine] | – | – | – | – | 15 mg/mL (≈ 50 mM) | 20 mg/mL (≈ 66.7 mM) | 15 mg/mL (≈ 50 mM) | 216 mg/mL (≈ 720 mM) | 85 mg/mL (≈ 283 mM) | 66 mg/mL (≈ 220 mM) | 25 mg/mL (≈ 83.3 mM) | 1.2 | implicated in p53 regulation | significantly inhibited tumor growth | decrease in microvessel density with respect to the tumors of the control group with a statistically meaningful difference |
